In patent publication US5505922A, “Anesthetic pharmaceutical combination” (University of Maryland at Baltimore, priority 1995, dated 1996):
Like-named read-outs stand apart in the source and are kept apart here.

Columns and labels:
[1] = acutely, 250 mg per ml of lithium; cited from earlier work
[2] = tested on: desheathed ferret vagus nerves (C fibers); test: In vitro recording of electrically stimulated compound action potentials from desheathed ferret vagus nerves (depression of action potential); assay type: cell-based; conditions: for IC50: read-out: ED50 (the source's name); for shift in the dose/response curve: lithium Lockes versus sodium Lockes, FIGS. 1 to 4; for in vitro ED50 reduction relative to control values: lithium-containing versus sodium Lockes vehicle
Protocol: To test if replacement of lithium ions for sodium ions reduced the required local anesthetic dose, an in vitro experiment was performed, wherein the electrically stimulated compound action potentials were recorded from desheathed ferret vagus nerves, which are an enriched source of C fibers.
The ferret vagus nerves were removed bilaterally and were desheathed under a Zeiss dissecting microscope with a magnification of 2.5X. A single desheathed nerve was then placed in a chamber interlaced with electrodes for stimulating and recording action potentials. The central section of the nerve passes through the central well containing either buffer or drug in buffer.
The stimulation voltage was adjusted to provide maximal action potential. The stimulus duration was 0.5 milliseconds. Stimulation and recording parameters were programmed, and stimuli were presented at 2 second intervals. Five successive action potentials were averaged and stored as an estimate of action potential activity each minute. The intervening […] action potential were discarded.
Control nerves were bathed in a 100% sodium Locke's solution, synthesized in the manner set forth in Synthesis Example 1 above. Experimental nerves were bathed in lithium Locke's solution, comprising 35 mol Eq. % lithium, 65 mol Eq. % sodium Locke's solution, synthesized in the manner set forth in Synthesis Example 2 above.
The electrical stimuli were applied to one end of the nerve, while on the other end, the resulting action potential propagation was measured using an oscilloscope and the recording computer. Varying doses of mepivacaine were administered to the nerves so that dose/response curves could be constructed under both ionic conditions.
Following a period of equilibration in a buffer where control recordings are made, the well was emptied and a molar concentration of a test anesthetic was added. Various molar concentrations of mepivacaine, an amide type local anesthetic (Sterling-Winthrop Research Institute, Rensselear, N.Y.), and procaine, an ester type local anesthetic (Sigma Chemical Co., St. Louis, Mo.) were tested in both sodium and lithium Locke's buffer vehicles, as described above.
Compound action potentials having two distinct peaks, labeled as A and C peaks, are observed and were recorded at 2 second intervals. Five consecutive action potentials were recorded for each one minute time period over 30 minutes. At 30 minutes, the anesthetic was removed and the chamber was perfused with buffer. Recording was continued during this 30 minute period. The averaged data, collected every 2 minutes, was then analyzed to determine the slope of the action potential, the height of the action potential, the area under the curve of the action potential and the conduction velocity. This was done for both the A and C peaks.
The data were then plotted as percent of control versus time. Other molar concentrations were administered from the dose where there was no effect on the A peak, and to a dose where the action potential was depressed to zero.
Inspection of the data allowed recording of the maximal observed effect for each of the concentrations studied. This observed maximum (or an asymptotic value derived from an appropriate equation) was used to generate log-probit linear regressions of the dose versus the effect. This is accomplished by conversion of the percent effect to the corresponding probit value, conversion of the dose to its log10 and fitting a first degree polynomial to the resultant data by the method of least squares.
The 95% confidence band was calculated and plotted for the data. From the equations of the best fit line and the confidence bands, doses estimated to produce 50, 90 and 95% depression of the four parameters were calculated for both the A and C peaks of the action potentials.
Table 1 was prepared using the results of each of the concentrations onsets (T 85%). […]

[3] = tested on: tooth pulps of the central incisors of rabbits; test: In vivo electrically stimulated tooth pulp pain model (rabbit tooth pulp assay)
Protocol: To confirm the results of the in vitro experiments in vivo, an electrically stimulated tooth pulp pain model was used. The tooth pulps of the central incisors of rabbits were exposed using a high speed burr and dental drill.
Electrodes were inserted into the pulp chambers and the voltage required to elicit a lick/chew response was measured. The percentage analgesia was calculated from the following equation:
MPE=((TV-CV)/(10 V-CV))×100
wherein TV is the voltage after treatment; CV is the control voltage, and 10 V are the maximum volts applied.
The percent analgesia was recorded 0, 5, 10, 15, 30, 60, 120 and 180 minutes after injection.

[4] = control (sodium Lockes) buffer vehicle
[5] = in the lithium-containing buffer vehicle

Row | Structure (SMILES) | acute tolerability [1] | IC50 [2, 4] [µM] | IC50 [2, 5] [µM] | shift in the dose/response curve [2] | in vitro ED50 reduction relative to control values [2] | shift in the dose/response curves ([3]; lithium Lockes versus sodium Lockes, FIGS. 5 and 6) | in vivo ED50 reduction relative to standard sodium Lockes vehicle ([3]; lithium Lockes versus standard sodium Lockes vehicle) | ED50 ([3]; lithium present in the buffer vehicle) [%] | ED50 ([3]; without lithium (sodium Lockes)) [%]
1 | [Li] [lithium] | well tolerated | – | – | – | – | – | – | – | –
2 | Cc1cccc(C)c1NC(=O)C1CCCCN1C (stereo not shown) [mepivacaine] | – | 420 | 270 | not parallel and demonstrated that the effect of lithium was most pronounced at lower concentrations | reduced to half their control values | not parallel and demonstrated that the effect of lithium was most pronounced at lower concentrations | reduced to one third of its value | 0.69 | 1.93
3 | CCN(CC)CCOC(=O)c1ccc(N)cc1 [procaine] | – | 540 | 190 | not parallel and demonstrated that the effect of lithium was most pronounced at lower concentrations | reduced to half their control values | – | – | – | –
